Experimental data reported in the NIST ThermoML archive (doi:10.1016/j.jct.2016.12.032).
Numbers after ± are expanded uncertainties.

Assays:
[1] = 100 kPa, Liquid; for mass density: Vibrating tube method; for viscosity: Capillary tube (Ostwald / Ubbelohde) method; for speed of sound: Frequency=3 MHz, Sing-around technique in a fixed-path interferometer
[2] = xn = mol fraction of the nth substance listed; conditions: 100 kPa, Liquid, x1 = 1; for viscosity: Capillary tube (Ostwald / Ubbelohde) method; for mass density: Vibrating tube method
[3] = refractive index (Na D-line) (dimensionless); conditions: 100 kPa, Liquid, Standard Abbe refractometry

CCCC[n+]1ccn(C)c1.O=S(=O)([N-]S(=O)(=O)C(F)(F)F)C(F)(F)F
[1]
Conditions | mass density [kg/m3]
293.15 K | 1441.61 ± 2
298.15 K | 1436.67 ± 2
303.15 K | 1431.58 ± 2
308.15 K | 1426.62 ± 2
313.15 K | 1421.58 ± 2
318.15 K | 1416.58 ± 2
323.15 K | 1411.54 ± 2

CCCC[n+]1ccn(C)c1.O=S(=O)([N-]S(=O)(=O)C(F)(F)F)C(F)(F)F + CC1CC(=O)O1
[2]
Conditions | mass density [kg/m3] | viscosity [mPa·s]
293.15 K | 1441.61 ± 2 | 62.08 ± 2.5
298.15 K | 1436.67 ± 2 | 50.05 ± 2
303.15 K | 1431.58 ± 2 | 41.24 ± 1.7
308.15 K | 1426.62 ± 2 | 33.65 ± 1.4
313.15 K | 1421.58 ± 2 | 28.28 ± 1.1
318.15 K | 1416.58 ± 2 | 23.91 ± 0.97
323.15 K | 1411.54 ± 2 | 20.64 ± 0.84

CCCC[n+]1ccn(C)c1.O=S(=O)([N-]S(=O)(=O)C(F)(F)F)C(F)(F)F + CC1CCC(=O)O1
[2]
Conditions | mass density [kg/m3] | viscosity [mPa·s]
293.15 K | 1441.61 ± 2 | 62.08 ± 2.5
298.15 K | 1436.67 ± 2 | 50.05 ± 2
303.15 K | 1431.58 ± 2 | 41.24 ± 1.7
308.15 K | 1426.62 ± 2 | 33.65 ± 1.4
313.15 K | 1421.58 ± 2 | 28.28 ± 1.1
318.15 K | 1416.58 ± 2 | 23.91 ± 0.97
323.15 K | 1411.54 ± 2 | 20.64 ± 0.84

CCCC[n+]1ccn(C)c1.O=S(=O)([N-]S(=O)(=O)C(F)(F)F)C(F)(F)F + O=C1CCCCCO1
[2]
Conditions | mass density [kg/m3] | viscosity [mPa·s]
293.15 K | 1441.61 ± 2 | 62.08 ± 2.5
298.15 K | 1436.67 ± 2 | 50.05 ± 2
303.15 K | 1431.58 ± 2 | 41.24 ± 1.7
308.15 K | 1426.62 ± 2 | 33.65 ± 1.4
313.15 K | 1421.58 ± 2 | 28.28 ± 1.1
318.15 K | 1416.58 ± 2 | 23.91 ± 0.97
323.15 K | 1411.54 ± 2 | 20.64 ± 0.84

CCCC[n+]1ccn(C)c1.O=S(=O)([N-]S(=O)(=O)C(F)(F)F)C(F)(F)F + O=C1CCCCO1
[2]
Conditions | mass density [kg/m3] | viscosity [mPa·s]
293.15 K | 1441.61 ± 2 | 62.08 ± 2.5
298.15 K | 1436.67 ± 2 | 50.05 ± 2
303.15 K | 1431.58 ± 2 | 41.24 ± 1.7
308.15 K | 1426.62 ± 2 | 33.65 ± 1.4
313.15 K | 1421.58 ± 2 | 28.28 ± 1.1
318.15 K | 1416.58 ± 2 | 23.91 ± 0.97
323.15 K | 1411.54 ± 2 | 20.64 ± 0.84

O=C1CCCCO1 [1-oxacyclohexan-2-one]
[1]
Conditions | mass density [kg/m3] | speed of sound [m/s] | viscosity [mPa·s]
293.15 K | 1108.53 ± 2 | 1587.2 ± 3.4 | 3.68 ± 0.15
298.15 K | 1103.96 ± 2 | 1569.2 ± 3.4 | 3.3 ± 0.13
303.15 K | 1099.44 ± 2 | 1551.3 ± 3.3 | 2.98 ± 0.12
308.15 K | 1094.83 ± 2 | 1533.5 ± 3.3 | 2.7 ± 0.11
313.15 K | 1090.27 ± 2 | 1516 ± 3.3 | 2.47 ± 0.1
318.15 K | 1085.71 ± 2 | 1498.6 ± 3.2 | 2.25 ± 0.09
323.15 K | 1081.16 ± 2 | 1481.5 ± 3.2 | 2.09 ± 0.09

CC1CC(=O)O1 (stereo not drawn) [4-methyl-2-oxetanone]
Conditions | mass density, [1] [kg/m3] | refractive index, [3] | speed of sound, [1] [m/s] | viscosity, [1] [mPa·s]
293.15 K | 1055.93 ± 2 | 1.414 ± 0.003 | 1371 ± 3 | 1.68 ± 0.07
298.15 K | 1050.68 ± 2 | 1.412 ± 0.003 | 1352.8 ± 3 | 1.55 ± 0.06
303.15 K | 1045.31 ± 2 | 1.41 ± 0.003 | 1334.7 ± 2.9 | 1.48 ± 0.06
308.15 K | 1039.85 ± 2 | 1.407 ± 0.003 | 1316.7 ± 2.9 | 1.4 ± 0.06
313.15 K | 1034.33 ± 2 | 1.405 ± 0.003 | 1298.8 ± 2.9 | 1.33 ± 0.05
318.15 K | 1028.79 ± 2 | 1.403 ± 0.003 | 1281.1 ± 2.8 | 1.25 ± 0.05
323.15 K | 1023.19 ± 2 | 1.401 ± 0.003 | 1263.6 ± 2.8 | 1.18 ± 0.05

O=C1CCCCCO1 [6-hexanolactone]
Conditions | mass density, [1] [kg/m3] | refractive index, [3] | speed of sound, [1] [m/s] | viscosity, [1] [mPa·s]
293.15 K | 1075.92 ± 2 | 1.463 ± 0.003 | 1567.8 ± 3.4 | 6.63 ± 0.27
298.15 K | 1071.67 ± 2 | 1.461 ± 0.003 | 1548.3 ± 3.3 | 5.76 ± 0.23
303.15 K | 1067.41 ± 2 | 1.459 ± 0.003 | 1529 ± 3.3 | 5.04 ± 0.2
308.15 K | 1063.15 ± 2 | 1.457 ± 0.003 | 1510 ± 3.3 | 4.44 ± 0.18
313.15 K | 1058.9 ± 2 | 1.455 ± 0.003 | 1491.2 ± 3.2 | 3.95 ± 0.16
318.15 K | 1054.65 ± 2 | 1.454 ± 0.003 | 1472.7 ± 3.2 | 3.53 ± 0.14
323.15 K | 1050.4 ± 2 | 1.452 ± 0.003 | 1454.5 ± 3.1 | 3.17 ± 0.13

CC1CCC(=O)O1 (stereo not drawn) [γ-valerolactone]
Conditions | mass density, [1] [kg/m3] | refractive index, [3] | speed of sound, [1] [m/s] | viscosity, [1] [mPa·s]
293.15 K | 1053.99 ± 2 | 1.434 ± 0.003 | 1447.3 ± 3.1 | 1.99 ± 0.08
298.15 K | 1049.28 ± 2 | 1.432 ± 0.003 | 1429.2 ± 3.1 | 1.82 ± 0.07
303.15 K | 1044.58 ± 2 | 1.43 ± 0.003 | 1411.3 ± 3.1 | 1.67 ± 0.07
308.15 K | 1039.87 ± 2 | 1.427 ± 0.003 | 1393.5 ± 3 | 1.53 ± 0.06
313.15 K | 1035.16 ± 2 | 1.425 ± 0.003 | 1375.9 ± 3 | 1.42 ± 0.06
318.15 K | 1030.45 ± 2 | 1.423 ± 0.003 | 1358.4 ± 3 | 1.32 ± 0.05
323.15 K | 1025.74 ± 2 | 1.421 ± 0.003 | 1341.2 ± 2.9 | 1.23 ± 0.05
